Reference: patent US20230313140A1, “METHOD FOR PREPARING T CELLS FOR ADOPTIVE T CELL THERAPY” (St. Jude Children's Research Hospital, Inc., priority 2022, published 2023)

What was measured:
[1] = tested on: Sirt1; experiment: Immunofluorescence imaging of Sirt1 distribution between dividing sister cells; conditions: silvestrol 200 nM or Hippuristanol 500 nM, last hour of activation
Experimental: (§1) Murine CD8^+ T Lymphocytes. For CD8^+ T cell stimulation, splenocytes obtained from wild-type animals were enriched for antigen presenting cells (APCs) using CD11c MicroBeads (Miltenyi Biotec) and pulsed with 5 nM of [sequence] peptide (SEQ ID NO:1; AnaSpec Inc.) for 1 hour at 37° C. CD8^+ T cells were isolated from lymph nodes using the Dynabeads Untouched Mouse CD8 Cells Kit (Invitrogen) and overlain onto the peptide-pulsed APCs. […] Whenever assessment of cell division was required, CD8^+ T cells were labeled with a fluorescent dye sold under the tradename CELLTRACE® Violet (CTV) Cell Proliferation Kit (Invitrogen) at 5 μM per 1×10^7 cells for 10 minutes at 37° C. For in vivo stimulation, CTV-labeled CD8^+ T cells were transferred by tail vein injection of wild-type recipients. Twenty-four hours after transfer, recipients were immunized by subcutaneous injection of 50 μg of [sequence] peptide (SEQ ID NO:1) into the neck region. Donor cells were obtained from axillary and brachial lymph nodes 8 hours after immunization. CD8^+ T cells were cultured in RPMI 1640 (Gibco) supplemented with 10% (v/v) heat-inactivated fetal bovine serum (FBS), lx MEM non-essential amino acids (Gibco), 1 mM Sodium pyruvate (Gibco), 2 mM L-glutamine (Gibco), 55 μM 2-mercaptoethanol (Gibco), 50 U/ml penicillin and 50 μg/ml streptomycin (Corning) at 37° C. in 5% CO2. […]

[2] = tested on: c-Myc association with RPL26 and S6; experiment: STORM analysis of c-Myc translating polysomes; format: cell-based, mouse; conditions: brief treatment, 91 μM
Experimental: Murine CD8^+ T Lymphocytes. […] Stochastic Optical Reconstruction Microscopy (STORM). […] PFA was added to the culture at a final concentration of 4% (v/v), the cell suspension was transferred into […], and fixation continued for 10 minutes at RT. During all sample preparation, cells were pelleted for 3 minutes at 2000 rpm between each buffer. […] Reactive groups were quenched in 20 mM glycine, and non-specific antibody binding was blocked in TBS+2% BSA. […] Cells were washed with TBS and incubated with the following secondary antibodies for 1 hour at RT: CF488-labeled donkey anti-rat (1:1000, Biotium), CF568-labeled donkey anti-Goat (1:1000, Biotium), and AF647-labeled donkey anti-rabbit (1:1000, Jackson ImmunoResearch). Following two washes with TBS, cells were post-fixed in 1% (v/v) PFA for 5 minutes at RT, pelleted and resuspended in 20 μl cell culture matrix sold under […] drop of the cell suspension was placed into a cryomold, overlaid with Tissue Freezing Medium (Fisher Scientific Company) and snap frozen on dry ice. […] cryosections were placed on poly-L-lysine coated #1.5 18-mm coverslips (Electron Microscopy Sciences) and affixed to 35-mm dishes (Mattek) using epoxy resin. […] At least 25 cells from two independent experiments were analyzed. […]

[3] = tested on: ribosomal protein S6; experiment: General TORC1 activity measured by phosphorylation of ribosomal protein S6; format: cell-based, mouse; conditions: activated, undivided cells treated with dynein inhibitors
Source text: Murine CD8^+ T Lymphocytes. […] Immunofluorescence Staining and Imaging.

[4] = tested on: p-eIF4GI; experiment: Imaging of polarization of p-eIF4GI in activated, undivided CD8+ T cells; conditions: Dynarrestin 25 μM, Ciliobrevin D 50 μM
Experimental: (§2) Murine CD8^+ T Lymphocytes. For CD8^+ T cell stimulation, splenocytes obtained from wild-type animals were enriched for antigen presenting cells (APCs) using CD11c MicroBeads (Miltenyi Biotec) and pulsed with 5 nM of [sequence] peptide (SEQ ID NO:1; AnaSpec Inc.) for 1 hour at 37° C. CD8^+ T cells were isolated from lymph nodes using the Dynabeads Untouched Mouse CD8 Cells Kit (Invitrogen) and overlain onto the peptide-pulsed APCs. Alternatively, CD8^+ T cells were stimulated on plate-bound anti-CD3ε (1 μg/ml, Bio X Cell), anti-CD28 (1 μg/ml, Bio X Cell), and recombinant human ICAM (0.5 μg/ml) produced in insect cells (Huppa et al. (2010) Nature 463:963-967); or by incubation with PMA (10 ng/ml, MedChemExpress) and Ionomycin (1 μM, MedChemExpress). Whenever assessment of cell division was required, CD8^+ T cells were labeled with a fluorescent dye sold under the tradename CELLTRACE® Violet (CTV) Cell Proliferation Kit (Invitrogen) at 5 μM per 1×10^7 cells for 10 minutes at 37° C. […]
(§3) The distribution of proteins in undivided cells was analyzed using Imaris 9.5 software (Oxford Instruments).

[5] = tested on: cytosolic c-Myc; experiment: Imaging of polarization of cytosolic c-Myc in activated, undivided CD8+ T cells; conditions: Dynarrestin 25 μM, Ciliobrevin D 50 μM
Experimental: as §2, §3

[6] = tested on: TORC1; experiment: Imaging of polarization of TORC1 activity (phospho-mTOR) in activated, undivided CD8+ T cells; conditions: Dynarrestin 25 μM, Ciliobrevin D 50 μM
Experimental: as §2, §3

[7] = tested on: c-Myc bound to chromatin at c-Myc binding sites; experiment: CUT&RUN ChIP-seq of c-Myc bound to chromatin in first-division CD8+ T cells; format: cell-based, mouse; conditions: brief treatment of activated CD8+ T cells; 200 nM, 2 hours; chromatin immunoprecipitation
Experimental: CHIP-Sequencing. First-division CD8^+ T cells were sorted into medium with or without 200 nM silvestrol and cultured for additional 2 hours. CUT&RUN ChIP-seq experiments were performed as previously described (Meers et al. (2019) Elife 8) with slight modifications. […] Libraries were quantified using Qubit and size distribution was determined by Agilent 4200 TapeStation analysis before 15 million paired-end sequencing was performed.
Analysis for CHIP-seq Data. Paired-end sequencing reads were trimmed with Trim Galore (version 0.5.0) with default parameters. Reads were aligned to the reference mouse mm10 assembly using Bowtie 2 (version 2.3.5.1) (Langmead & Salzberg (2012) Nat. Methods 9:357-359) with settings—end-to-end—very-sensitive—nomixed—no-discordant-q—phred33-I 10-X 700. The resulting alignments, recorded in BAM file, were sorted, indexed, and marked for duplicates with Picard MarkDuplicate function (version 2.19.0, Broad Institute). […] C-Myc occupancy was normalized by scaling to 1 million mapped reads using BEDTools (version 2.27.1) (Quinlan & Hall (2010) Bioinformatics 26:841-842) and bedGraphToBigWig (version 377) (Kent et al. (2010) Bioinformatics 26:2204-2207) and visualized as heatmaps using deepTools plotHeatmap (version 3.2.1) (Ramirez et al. (2016) Nucl. Acids Res. 44:W160-165).

[8] = tested on: GFP-c-Myc; format: cell-based, mouse; conditions: sorted first-division cells treated for 2 hours, 200 nM
[9] = tested on: first-division c-Myc^high CD8+ T cells; experiment: Adoptive transfer and in vivo influenza infection and challenge, donor cell frequency; design: species or system mouse; conditions: c-Myc^high cells treated 2 hours with 200 nM after sorting, transferred into recipients; A/X-31-OVA day 0, challenge day 30; spleen
[10] = tested on: c-Myc; experiment: Immunofluorescence imaging of c-Myc distribution in first-division sister cells; conditions: treatment immediately prior to the first division (last hour of activation); silvestrol 200 nM, Hippuristanol 500 nM
Experimental: as §1

Row | SMILES | Sirt1 protein distribution between dividing sister cells [1] | TORC1 activity in general, phosphorylation of ribosomal protein S6 [3] | polarization of p-eIF4GI [4] | polarization of cytosolic c-Myc [5] | polarization of TORC1 [6] | further results
1 | C[C@H]1C[C@@]2(O[C@H]3C[C@H]4[C@@H]5CC[C@H]6C[C@H](O)CC[C@]6(C)[C@H]5[C@@H](O)C[C@]4(C)[C@H]3[C@@]2(C)O)OC1(C)C [Hippuristanol] | unaffected | – | – | – | – | –
2 | COc1ccc(C[C@H](N)C(=O)N[C@H]2[C@@H](O)[C@H](n3cnc4c(N(C)C)ncnc43)O[C@@H]2CO)cc1 [puromycin] | – | – | – | – | – | association of c-Myc with RPL26 and S6 [2]: significantly reduced
3 | N#CC(=C(O)c1ccc(Cl)cc1Cl)c1nc2cc(Cl)ccc2c(=O)[nH]1 [Ciliobrevin D] | – | remained unaffected | abrogated the polarization | abrogated the polarization | abrogated the polarization | –
4 | CCOC(=O)c1sc(Nc2ccc(F)cc2F)nc1-c1ccc(N(CC)CC)cc1 [Dynarrestin] | – | remained unaffected | abrogated the polarization | abrogated the polarization | abrogated the polarization | –
5 | COC(=O)[C@H]1[C@@H](O)[C@@]2(O)c3c(OC)cc(O[C@@H]4O[C@@H]([C@H](O)CO)CO[C@H]4OC)cc3O[C@@]2(c2ccc(OC)cc2)[C@@H]1c1ccccc1 [silvestrol] | unaffected | – | – | – | – | c-Myc bound to chromatin at c-Myc binding sites [7]: greatly reduced; c-Myc levels in c-Myc^high cells (GFP-c-Myc MFI, FIG. 1) [8]: reduce c-Myc levels in c-Myc^high cells to those observed in c-Myc^low cells; frequency of donor cells on day 9 after A/PR/8-OVA challenge (FIG. 2) [9]: detected at numbers comparable to those found for sorted c-Myc^low cells; c-Myc asymmetry in first-division sister cells [10]: rapid equilibration of c-Myc levels
